Results reported in patent US10273272B2, “Antimicrobial peptides” (Amprologix Limited, priority 2014, dated 2019).
Where two headings read alike, the source gives them in different places. No end group written: not given here.

Columns and labels:
[1] = test system: MRSA; format: cell-based, Staphylococcus aureus
Protocol: (§1) A series of derivatives of the NI0138-51 (SEQ ID NO:12) truncation were carried out with a view to maintaining stability of the helix and/or increasing net positive charge of the peptides (Table 3). Minimum inhibitory concentrations (MICs) were determined for each derivative against a range of Gram positive and Gram negative organisms by a modified 2-fold microtitre broth dilution method (Wu and Hancock, J Biol Chem 1999; 274: 29-35) (Table 2). […] This could not have been predicted.

[2] = test system: E. coli; format: cell-based; details: for Average MIC: average of triplicate experiments, Table 5
Protocol: as §1

[3] = test system: Klebsiella (K. pneumoniae); format: cell-based
Protocol: as §1

[4] = test system: N. lactamica; format: cell-based
Protocol: as §1

[5] = test system: P. aeruginosa; format: cell-based
Protocol: as §1

[6] = test system: S aureus 1195; format: cell-based
Protocol: as §1

[7] = test system: VISA; format: cell-based
Protocol: as §1

[8] = test system: Gram positive and negative bacteria; assay: Antimicrobial activity against drug-resistant pathogens, summary in words; format: cell-based; details: summary of Table 2
Protocol: as §1

[9] = test system: S. Hominis; format: cell-based
Protocol: (§2) Experiments were conducted in which the full-length epidermicin peptide (51 amino acids, SEQ ID NO:10) was truncated to yield the derivatives shown in FIG. 1 (SEQ ID NOs:11 to 19). NI011-37 (SEQ ID NO:11) Is the region most similar to other peptides in the public domain, NI0138-51 (SEQ ID NO:12) is the region that is most unique with respect to other peptides in the public domain. All other truncations have been carried out by removing residues from the amino-terminal end of the peptide to each lysine residue (K). Lysine is important in antimicrobial peptides as it contributes to the net positive charge, which is thought to have a key role in the mode of action of ‘cationic’ peptides, like NI01 (SEQ ID NO:10).

[10] = test system: S. aureus 1195; format: cell-based
Protocol: as §2

[11] = test system: S. saprophyticus; format: cell-based
Protocol: as §2

[12] = test system: MRSA; format: cell-based, Staphylococcus aureus; remark: listed apart in the source
Protocol: as §2

[13] = test system: haemolysis; assay: Haemolysis assay (in vitro toxicity testing); format: cell-based; details: summary of Table 6
Protocol: In addition, in vitro toxicity testing (haemolysis assays) indicates a lack of toxicity at levels well above MIC for some peptides, indicating potential for a wide therapeutic window (Table 6). […] Since increased net charge is known to be associated with higher levels of haemolysis, (Dhople and Nagaraj, Peptides 2005: 26: 217-225), this was not wholly unexpected.
Experiments were conducted to assess the percentage haemolysis against peptide concentration for peptides SEQ ID NOs: 4, 5, 6 and 7 against full length epidermicin (SEQ ID NO:10) and SEQ ID NO:12.

How did the MIC [1] turn out when “SFEWIYKQIFKLWA [SEQ ID NO:1, SFEWIYKQIFKLWA]” was run?
The MIC was >64 µg/mL.

What about the “Average MIC” value ([2]; E. coli 49) of the same sequence?
The value was >64 µg/mL.

And the MIC ([2]; E. coli 50, Table 2)?
The MIC was >64 µg/mL.

What about the “Average MIC” value ([2]; E. coli 50) of the same sequence?
The value was >64 µg/mL.

What about the “Average MIC” value ([2]; E. coli 177) of the same sequence?
The value was >64 µg/mL.

And the MIC ([2]; E. coli 178, Table 2)?
Its MIC is >64 µg/mL.

What about the “Average MIC” value ([2]; E. coli 178) of the same sequence?
Its value is >64 µg/mL.

And the “Average MIC” value ([2]; E. coli 187)?
The value was >64 µg/mL.

What about the “Average MIC” value ([2]; E. coli DH5a) of the same sequence?
The value was >64 µg/mL.

What about the MIC ([2]; E. coli DH5α, Table 2) of the same sequence?
Its MIC is >64 µg/mL.

What about the MIC ([2]; E.coli 177, Table 2) of the same sequence?
Its MIC is >64 µg/mL.

What about the “Average MIC” value [3] of the same sequence?
The value was >64 µg/mL.

And the MIC [3]?
The MIC was >64 µg/mL.

And the MIC [4]?
The MIC was >64 µg/mL.

And the MIC [5]?
The MIC was >64 µg/mL.

And the “Average MIC” value [6]?
The value was >64 µg/mL.

And the MIC [6]?
Its MIC is >64 µg/mL.

What about the MIC [7] of the same sequence?
Its MIC is >64 µg/mL.

And the “antimicrobial activity against Gram positive and negative bacteria, in words” value (shortened to “antimicrobial activity”) [8]?
Its value is “significantly reduced activity”.

How did the MIC [9] turn out when “SFEWIYKQIKKLWA [SEQ ID NO:12, SFEWIYKQIKKLWA]” was run?
Its MIC is 4 µg/mL.

And the MIC [10]?
The MIC was 4 µg/mL.

And the MIC [11]?
Its MIC is 4 µg/mL.

What about the MIC [12] of the same sequence?
Its MIC is 12 µg/mL.

What about the “Average MIC” value ([2]; E. coli 49) of the same sequence?
The value was 9 µg/mL.

And the MIC ([2]; E. coli 50, Table 2)?
Its MIC is 7 µg/mL.

What about the “Average MIC” value ([2]; E. coli 50) of the same sequence?
The value was 7 µg/mL.

What about the “Average MIC” value ([2]; E. coli 177) of the same sequence?
Its value is 5 µg/mL.

What about the MIC ([2]; E. coli 178, Table 2) of the same sequence?
Its MIC is 5 µg/mL.

And the “Average MIC” value ([2]; E. coli 178)?
The value was 5 µg/mL.

What about the “Average MIC” value ([2]; E. coli 187) of the same sequence?
Its value is 5 µg/mL.

And the “Average MIC” value ([2]; E. coli DH5a)?
Its value is 8 µg/mL.

What about the MIC ([2]; E. coli DH5α, Table 2) of the same sequence?
Its MIC is 8 µg/mL.

What about the MIC ([2]; E.coli 177, Table 2) of the same sequence?
Its MIC is 5 µg/mL.

And the MIC [4]?
Its MIC is 10.6 µg/mL.

And the MIC [5]?
The MIC was 64 µg/mL.

And the “Average MIC” value [6]?
Its value is 4 µg/mL.

What about the “haemolytic activity / toxicity, in words” value [13] of the same sequence?
The value was “higher levels of haemolytic activity”.

Which MIC ([2]; E. coli 50, Table 2) does the source give for “SFEWIYKQIKKLWAK [SEQ ID NO:6, SFEWIYKQIKKLWAK]” here?
The MIC was 4 µg/mL.

And the MIC ([2]; E. coli 178, Table 2)?
Its MIC is 8 µg/mL.

What about the MIC ([2]; E. coli DH5α, Table 2) of the same sequence?
Its MIC is 6.7 µg/mL.

And the MIC ([2]; E.coli 177, Table 2)?
The MIC was 4 µg/mL.

What about the MIC [3] of the same sequence?
Its MIC is 10.7 µg/mL.

And the MIC [4]?
The MIC was 21.3 µg/mL.

And the MIC [5]?
The MIC was 32 µg/mL.

And the MIC [6]?
The MIC was 3.3 µg/mL.

What about the MIC [7] of the same sequence?
Its MIC is >64 µg/mL.

And the “haemolytic activity / toxicity, in words” value [13]?
Its value is “higher levels of haemolytic activity”.

“SFEWIYKQIKKLWAKKK [SEQ ID NO:7, SFEWIYKQIKKLWAKKK]” was tested. Which MIC ([2]; E. coli 50, Table 2) did it give?
Its MIC is 4.3 µg/mL.

What about the MIC ([2]; E. coli 178, Table 2) of the same sequence?
Its MIC is 3.3 µg/mL.

And the MIC ([2]; E. coli DH5α, Table 2)?
Its MIC is 4 µg/mL.

And the MIC ([2]; E.coli 177, Table 2)?
The MIC was 3 µg/mL.

What about the MIC [4] of the same sequence?
Its MIC is 37.3 µg/mL.

And the MIC [5]?
The MIC was 8 µg/mL.

What about the MIC [6] of the same sequence?
The MIC was 1.7 µg/mL.

And the “haemolytic activity / toxicity, in words” value [13]?
The value was “relatively low levels of haemolysis”.

With “SFEWIYKQIWKLKRGLA [SEQ ID NO:3, SFEWIYKQIWKLKRGLA]” as the sequence, how does the “Average MIC” value ([2]; E. coli 49) read?
The value was 19 µg/mL.

And the MIC ([2]; E. coli 50, Table 2)?
The MIC was 11 µg/mL.

And the “Average MIC” value ([2]; E. coli 50)?
Its value is 11 µg/mL.

And the “Average MIC” value ([2]; E. coli 177)?
Its value is 5 µg/mL.

And the MIC ([2]; E. coli 178, Table 2)?
Its MIC is 21 µg/mL.

What about the “Average MIC” value ([2]; E. coli 178) of the same sequence?
The value was 21 µg/mL.

And the “Average MIC” value ([2]; E. coli 187)?
The value was 11 µg/mL.

What about the “Average MIC” value ([2]; E. coli DH5a) of the same sequence?
The value was 9 µg/mL.

And the MIC ([2]; E. coli DH5α, Table 2)?
The MIC was 9 µg/mL.

And the MIC ([2]; E.coli 177, Table 2)?
Its MIC is 5 µg/mL.

And the “activity against E coli strains tested, in words” value ([2]; summary of Table 2)?
Its value is “good activity”.

And the “Average MIC” value [3]?
The value was >64 µg/mL.

What about the MIC [3] of the same sequence?
Its MIC is >64 µg/mL.

And the MIC [4]?
The MIC was >64 µg/mL.

And the MIC [5]?
The MIC was >64 µg/mL.

And the “Average MIC” value [6]?
Its value is 13 µg/mL.

What about the MIC [6] of the same sequence?
The MIC was 13 µg/mL.

And the “antimicrobial activity” value ([8]; listed as 3)?
The value was “significantly reduced activity”.

And the “antimicrobial activity” value ([8]; listed as SEQ ID: No 3)?
Its value is “very low levels of activity”.

Which results are given for “SFEWIYKQPKKLWA [SEQ ID NO:20, SFEWIYKQPKKLWA]”?
MIC [1]: >64 µg/mL; MIC ([2]; E. coli 50, Table 2): >64 µg/mL; MIC ([2]; E. coli 178, Table 2): >64 µg/mL; MIC ([2]; E. coli DH5α, Table 2): >64 µg/mL; MIC ([2]; E.coli 177, Table 2): >64 µg/mL; MIC [3]: >64 µg/mL; MIC [5]: >64 µg/mL; MIC [6]: >64 µg/mL; MIC [7]: >64 µg/mL

Which results are given for “SFKWIYKQIKKLWA [SEQ ID NO:5, SFKWIYKQIKKLWA]”?
MIC ([2]; E. coli 50, Table 2): 1.3 µg/mL; MIC ([2]; E. coli 178, Table 2): 1.3 µg/mL; MIC ([2]; E. coli DH5α, Table 2): 2 µg/mL; MIC ([2]; E.coli 177, Table 2): 2 µg/mL; MIC [4]: 4.7 µg/mL; MIC [6]: 1.2 µg/mL; haemolytic activity / toxicity, in words [13]: higher levels of haemolytic activity

For “SFKWIYKQPKKLWA [SEQ ID NO:21, SFKWIYKQPKKLWA]”, which MIC ([2]; E. coli 50, Table 2) is on record?
The MIC was 64 µg/mL.

What about the MIC ([2]; E. coli 178, Table 2) of the same sequence?
Its MIC is 64 µg/mL.

And the MIC ([2]; E. coli DH5α, Table 2)?
Its MIC is 26.7 µg/mL.

What about the MIC ([2]; E.coli 177, Table 2) of the same sequence?
The MIC was 53.3 µg/mL.

What about the MIC [3] of the same sequence?
Its MIC is >64 µg/mL.

What about the MIC [5] of the same sequence?
Its MIC is >64 µg/mL.

And the MIC [6]?
Its MIC is 42.7 µg/mL.

What about the MIC [7] of the same sequence?
The MIC was >64 µg/mL.

“SFKWIYKQPKKLWAKKK [SEQ ID NO:23, SFKWIYKQPKKLWAKKK]” was tested. Which MIC ([2]; E. coli 50, Table 2) did it give?
Its MIC is 18.7 µg/mL.

And the MIC ([2]; E. coli 178, Table 2)?
The MIC was 26.7 µg/mL.

And the MIC ([2]; E. coli DH5α, Table 2)?
Its MIC is 13.3 µg/mL.

What about the MIC ([2]; E.coli 177, Table 2) of the same sequence?
The MIC was 16 µg/mL.

And the MIC [3]?
Its MIC is >64 µg/mL.

And the MIC [5]?
The MIC was >64 µg/mL.

What about the MIC [6] of the same sequence?
The MIC was 8 µg/mL.

And the MIC [7]?
The MIC was >64 µg/mL.

For “SFKWPYKQIKKLWA [SEQ ID NO:22, SFKWPYKQIKKLWA]”, which MIC ([2]; E. coli 178, Table 2) is on record?
The MIC was 32 µg/mL.

What about the MIC ([2]; E. coli DH5α, Table 2) of the same sequence?
The MIC was 10.7 µg/mL.

And the MIC ([2]; E.coli 177, Table 2)?
The MIC was 13.3 µg/mL.

And the MIC [5]?
The MIC was 64 µg/mL.

And the MIC [6]?
Its MIC is 16 µg/mL.

And the MIC [7]?
Its MIC is >64 µg/mL.
